These are literature values, as cited in patent publication US20070167440A1, “Novel pyrrolidine compound and a process for preparing the same” (priority 2004, published 2007).

The test system of the series is gastric motility. The following applies: mice; disclosed in JP1993-17434.

Regarding `COc1cc(N)c(Cl)cc1C(=O)NC1CC(CO)N(C(c2ccccc2)c2ccccc2)C1` (stereo not shown) [4-amino-5-chloro-N-[1-(diphenylmethyl)-5-(hydroxymethyl)-3-pyrrolidinyl]-2-methoxy-benzamide], the gastric motility entry is recorded as “increased gastric motility”.
